Consider 1 compound from patent US12642796B2, “Method and device of treating chronic kidney disease-associated pruritus” (Avior, Inc., priority 2018, dated 2026).

Several values for one entry are separate records, joined by “and”; a condition that tells them apart may be missing. Equal entries are not always repeated.

The test system of experiment [1] is C57BL mice. Briefly: Effect of nalmefene on SP-induced scratching behavior (Example 2). The class given is in vivo, mouse. As to conditions: nalmefene SC 1 hour prior to SP ID 33.7 μg; 30 and 60 minutes after SP, FIG. 3. The method, then: Scratching behavior was monitored for 30 and 60 minutes after SP injection. Controls included mice that received PBS instead of SP (N=6, Group 5) and mice that received a placebo dose of PBS and ID dose of SP (N=4, Group 6).

Experiment [2] relates to C57BL/6 mice. Briefly: SP and nalmefene injection, scratches Groups 10-12, 0-60 minutes (Example 3). The class given is in vivo, mouse. The method, then: Fifteen male C57BL/6 mice received a single intradermal (ID) bolus injection of substance P (SP) or PBS. Group 10 (N=6) received a single 50 μL injection of PBS. Group 11 (N=4) received SP in PBS at a dose of 0.5 mM/50 μl. […] Scratching behavior was video recorded and assessed.
Groups 10 and 11: All mice were placed in a clear cylindrical enclosure 60 minutes prior to testing to acclimate. An ID bolus injection of SP in PBS was administered. Recording began immediately following injection of SP and recorded for 60 minutes.
Group 12: All mice were placed in clear cylinder enclosures for 60 minutes prior to testing to acclimate. A SC bolus injection of nalmefene was administered. 30 minutes after the nalmefene injection, an ID bolus injection of SP in PBS was administered. Recording began immediately following injection of SP and recorded for 60 minutes.
Animals in Groups 10-12 were acclimated for 1 hour prior to recording. Behavioral recording lasted for 60 minutes (T0-T60). 6 animals were dosed for Group 12 but only 5 animals were tested due to one animal being excluded as an outlier due to no response to SP injection.
The number of scratches per 10-minute time interval for Groups 10-12 is given below in Table 3. The data is also shown graphically in FIG. 4.
The number of scratches per 0-30 minute and 30-60 minute time intervals is given below in Table 4 for Group 10 (PBS), Group 11 (0.5 mM SP), and Group 12 (0.75 mg nalmefene). The data is also shown graphically in FIG. 5.

Where [3] appears, read: Group 12, Nalmefene 0.75 mg SC before SP 0.5 mM ID, 0-30 min.
Where [4] appears, read: Group 12, Nalmefene 0.75 mg SC before SP 0.5 mM ID, 30-60 min.
The mark [5] stands for this setting: Group 12, nalmefene 0.075 mg/75 μL SC 30 min prior to SP 0.5 mM/50 μL ID, 0-10 min.
Where [6] appears, read: Group 12, nalmefene 0.075 mg/75 μL SC 30 min prior to SP 0.5 mM/50 μL ID, 10-20 min.
Where [7] appears, read: Group 12, nalmefene 0.075 mg/75 μL SC 30 min prior to SP 0.5 mM/50 μL ID, 20-30 min.
[8] abbreviates: Group 12, nalmefene 0.075 mg/75 μL SC 30 min prior to SP 0.5 mM/50 μL ID, 30-40 min.
Where [9] appears, read: Group 12, nalmefene 0.075 mg/75 μL SC 30 min prior to SP 0.5 mM/50 μL ID, 40-50 min.
Where [10] appears, read: Group 12, nalmefene 0.075 mg/75 μL SC 30 min prior to SP 0.5 mM/50 μL ID, 50-60 min.

For `C=C1CC[C@@]2(O)[C@H]3Cc4ccc(O)c5c4[C@@]2(CCN3CC2CC2)[C@H]1O5` [Nalmefene, 6-methylene-6-deoxy-N-cyclopropylmethyl-14 hydroxydihydronormorphine], the “pruritogenic response to SP” value in experiment [1] is given as “completely mitigated”. Moreover, the “Scratches, Avg.” value amounted to 8.6 in experiment [2] (setting [3]); 2.9 in experiment [2] (setting [4]); 2 in experiment [2] (setting [5]); 3 in experiment [2] (setting [6]); 3.6 in experiment [2] (setting [7]); 1 in experiment [2] (setting [8]). The “Scratches, Avg.” value in experiment [2] (setting [9]) is recorded as 1.8; in experiment [2] (setting [10]) it was 0.1. The “Scratches, individual animals” value in experiment [2] (setting [3]) was 10 and 29 and 0 (2×) and 4; in experiment [2] (setting [4]), 1 and 5 and 0 (2×) and 8.5; in experiment [2] (setting [5]), 10 and 0 (4×); in experiment [2] (setting [6]), 0 (3×) and 13 and 2; in experiment [2] (setting [7]), 0 (3×) and 16 and 2; in experiment [2] (setting [8]), 0 (4×) and 5. Also, the “Scratches, individual animals” value in experiment [2] (setting [9]) is 0.5 and 5 and 0 (2×) and 3.5; in experiment [2] (setting [10]) it was 0.5 and 0 (4×). Moreover, in experiment [2] (Group 12 vs Groups 10 and 11, 0-60 min), the “ability to control scratching behavior, and by extension pruritus” value is “maintained over the hour”.
